According to PubChem BioAssay (NCI):
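All cell lines were grown in 96-well plates and treated with compound for 48 hours. GI50 marks 50% less growth. Definition used: TGI = concentration required for complete inhibition of growth.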

Legend:
Assay in all cases: NCI anticancer screen, dose series, 48 h
COLO 205 colon = tested on: COLO 205 colon
HT29 colon = tested on: HT29 colon
KM12 colon = tested on: KM12 colon
LOX IMVI melanoma = tested on: LOX IMVI melanoma
MALME-3M melanoma = tested on: MALME-3M melanoma
NCI/ADR-RES ovarian = tested on: NCI/ADR-RES ovarian
RPMI-8226 leukemia = tested on: RPMI-8226 leukemia
SF-268 CNS = tested on: SF-268 CNS
SK-MEL-2 melanoma = tested on: SK-MEL-2 melanoma
SW-620 colon = tested on: SW-620 colon

CCN(CC)CCNC(=O)c1ccc(C)c(OCc2ccccc2)c1[N+](=O)[O-]
TGI (COLO 205 colon): 30.8 µM
TGI (HT29 colon): 38.7 µM
TGI (KM12 colon): > 81.1 µM
TGI (LOX IMVI melanoma): 49.9 µM
TGI (MALME-3M melanoma): 31.2 µM
TGI (NCI/ADR-RES ovarian): > 62.8 µM
TGI (RPMI-8226 leukemia): 72.6 µM
TGI (SF-268 CNS): > 100 µM
TGI (SK-MEL-2 melanoma): 41 µM
TGI (SW-620 colon): 44 µM

Nc1nc(N)c2cc(CNc3ccc(C(=O)NC(CC(=O)O)C(=O)O)c(Cl)c3)ccc2n1 (stereo not given)
GI50 (COLO 205 colon): 0.462 µM
TGI (COLO 205 colon): > 500 µM
GI50 (HT29 colon): 0.05 µM
TGI (HT29 colon): > 500 µM
TGI (KM12 colon): > 500 µM
GI50 (LOX IMVI melanoma): 0.05 µM
TGI (LOX IMVI melanoma): > 500 µM
GI50 (MALME-3M melanoma): > 500 µM
TGI (MALME-3M melanoma): > 500 µM
GI50 (NCI/ADR-RES ovarian): 0.05 µM
TGI (NCI/ADR-RES ovarian): > 500 µM
GI50 (RPMI-8226 leukemia): 2.77 µM
TGI (RPMI-8226 leukemia): > 500 µM
GI50 (SF-268 CNS): 0.189 µM
GI50 (SK-MEL-2 melanoma): > 500 µM
TGI (SK-MEL-2 melanoma): > 500 µM
GI50 (SW-620 colon): 0.05 µM
TGI (SW-620 colon): > 500 µM

CN1CCN(c2ccc(Nc3ncc4cc(C#N)c(=O)n(C5CCCC5)c4n3)cc2)CC1
GI50 (COLO 205 colon): 0.797 µM
TGI (COLO 205 colon): > 100 µM
GI50 (HT29 colon): 0.6 µM
TGI (HT29 colon): > 100 µM
GI50 (KM12 colon): 1.52 µM
TGI (KM12 colon): > 100 µM
GI50 (LOX IMVI melanoma): 0.58 µM
TGI (LOX IMVI melanoma): 3.51 µM
GI50 (MALME-3M melanoma): 1.9 µM
TGI (MALME-3M melanoma): > 100 µM
GI50 (NCI/ADR-RES ovarian): 2.94 µM
TGI (NCI/ADR-RES ovarian): > 33 µM
GI50 (RPMI-8226 leukemia): 0.87 µM
TGI (RPMI-8226 leukemia): 5.33 µM
GI50 (SF-268 CNS): 1.48 µM
TGI (SF-268 CNS): 4.95 µM
GI50 (SK-MEL-2 melanoma): 4.87 µM
TGI (SK-MEL-2 melanoma): > 62.8 µM
GI50 (SW-620 colon): 0.451 µM
TGI (SW-620 colon): > 100 µM

NC(=S)N/N=C/c1cc(-c2cccc(N)c2)ccn1
GI50 (COLO 205 colon): 3.41 µM
TGI (COLO 205 colon): > 100 µM
GI50 (HT29 colon): 3.72 µM
TGI (HT29 colon): > 100 µM
GI50 (KM12 colon): 1.11 µM
TGI (KM12 colon): > 41.2 µM
GI50 (LOX IMVI melanoma): 2.09 µM
TGI (LOX IMVI melanoma): 34.6 µM
GI50 (MALME-3M melanoma): 1.31 µM
TGI (MALME-3M melanoma): 24 µM
GI50 (NCI/ADR-RES ovarian): 2.68 µM
TGI (NCI/ADR-RES ovarian): > 100 µM
GI50 (RPMI-8226 leukemia): 0.446 µM
TGI (RPMI-8226 leukemia): 28.7 µM
GI50 (SF-268 CNS): 1.02 µM
TGI (SF-268 CNS): > 70.7 µM
GI50 (SK-MEL-2 melanoma): 3.6 µM
TGI (SK-MEL-2 melanoma): 43.8 µM
GI50 (SW-620 colon): 3.45 µM
TGI (SW-620 colon): > 81.8 µM

Cc1ncc([N+](=O)[O-])n1CCNS(=O)(=O)CCCn1ncnc1[N+](=O)[O-]
TGI (COLO 205 colon): > 100 µM
TGI (HT29 colon): > 100 µM
TGI (KM12 colon): > 100 µM
TGI (LOX IMVI melanoma): > 100 µM
TGI (MALME-3M melanoma): > 100 µM
TGI (NCI/ADR-RES ovarian): > 100 µM
TGI (RPMI-8226 leukemia): > 100 µM
TGI (SF-268 CNS): > 100 µM
TGI (SK-MEL-2 melanoma): > 100 µM
TGI (SW-620 colon): > 100 µM

O=C(O)C12CC3(C(=O)O)CC(C(=O)O)(CC(C(=O)O)(C1)C3=O)C2=O
TGI (COLO 205 colon): > 100 µM
TGI (HT29 colon): > 100 µM
TGI (KM12 colon): > 100 µM
TGI (LOX IMVI melanoma): > 100 µM
TGI (MALME-3M melanoma): > 100 µM
TGI (NCI/ADR-RES ovarian): > 100 µM
TGI (RPMI-8226 leukemia): > 100 µM
TGI (SF-268 CNS): > 100 µM
TGI (SK-MEL-2 melanoma): > 100 µM
TGI (SW-620 colon): > 100 µM

O=C(NCc1ccc(S(=O)(=O)c2cc(F)cc(F)c2)cc1)c1ccc2nccn2c1
TGI (COLO 205 colon): > 100 µM
GI50 (HT29 colon): 0.0885 µM
TGI (HT29 colon): > 100 µM
GI50 (KM12 colon): 0.328 µM
TGI (KM12 colon): > 100 µM
GI50 (LOX IMVI melanoma): > 33.7 µM
TGI (LOX IMVI melanoma): > 66.8 µM
GI50 (MALME-3M melanoma): > 41.6 µM
TGI (MALME-3M melanoma): > 65 µM
GI50 (NCI/ADR-RES ovarian): 5.08 µM
TGI (NCI/ADR-RES ovarian): > 100 µM
TGI (RPMI-8226 leukemia): > 100 µM
GI50 (SF-268 CNS): 28.4 µM
TGI (SF-268 CNS): > 100 µM
GI50 (SK-MEL-2 melanoma): 20.1 µM
TGI (SK-MEL-2 melanoma): > 74.9 µM
GI50 (SW-620 colon): < 0.01 µM
TGI (SW-620 colon): > 100 µM

Cn1cc(-c2ccc(-c3cncc(Cl)c3N3CCC4(CCNC4=O)CC3)cc2)cn1
GI50 (COLO 205 colon): 10.6 µM
TGI (COLO 205 colon): > 100 µM
GI50 (HT29 colon): 16.9 µM
TGI (HT29 colon): > 100 µM
GI50 (KM12 colon): 33.3 µM
TGI (KM12 colon): > 100 µM
GI50 (LOX IMVI melanoma): 77.1 µM
TGI (LOX IMVI melanoma): > 100 µM
GI50 (MALME-3M melanoma): 66.6 µM
TGI (MALME-3M melanoma): > 100 µM
GI50 (NCI/ADR-RES ovarian): 45.3 µM
TGI (NCI/ADR-RES ovarian): > 100 µM
GI50 (RPMI-8226 leukemia): 17 µM
TGI (RPMI-8226 leukemia): 95.3 µM
GI50 (SF-268 CNS): 61.2 µM
TGI (SF-268 CNS): > 100 µM
GI50 (SK-MEL-2 melanoma): 24.7 µM
TGI (SK-MEL-2 melanoma): > 100 µM
GI50 (SW-620 colon): 47.7 µM
TGI (SW-620 colon): > 100 µM

COc1ccc2c(c1)C(C)Cc1c(ncnc1-n1cnc3cc(C)ccc31)N2C (stereo not given)
GI50 (COLO 205 colon): 0.176 µM
TGI (COLO 205 colon): 0.388 µM
GI50 (HT29 colon): 0.174 µM
TGI (HT29 colon): 0.611 µM
GI50 (KM12 colon): 0.132 µM
TGI (KM12 colon): 11.7 µM
GI50 (LOX IMVI melanoma): 0.0642 µM
TGI (LOX IMVI melanoma): 14.5 µM
GI50 (NCI/ADR-RES ovarian): 0.0575 µM
TGI (NCI/ADR-RES ovarian): 59.5 µM
GI50 (RPMI-8226 leukemia): 0.0407 µM
TGI (RPMI-8226 leukemia): 3.88 µM
GI50 (SF-268 CNS): 0.222 µM
TGI (SF-268 CNS): 15 µM
GI50 (SK-MEL-2 melanoma): 0.187 µM
TGI (SK-MEL-2 melanoma): 13.4 µM
GI50 (SW-620 colon): 0.087 µM
TGI (SW-620 colon): 16.1 µM

Clc1ccc(N=CNc2ccc(-c3nc4ccccc4o3)cc2)cc1
GI50 (COLO 205 colon): 22.7 µM
TGI (COLO 205 colon): > 100 µM
GI50 (KM12 colon): 15.4 µM
TGI (KM12 colon): 38.7 µM
GI50 (LOX IMVI melanoma): 12.5 µM
TGI (LOX IMVI melanoma): 25.8 µM
GI50 (NCI/ADR-RES ovarian): 7.03 µM
TGI (NCI/ADR-RES ovarian): 48.1 µM
GI50 (RPMI-8226 leukemia): 23.7 µM
TGI (RPMI-8226 leukemia): > 100 µM
GI50 (SF-268 CNS): 12.7 µM
TGI (SF-268 CNS): 39 µM
GI50 (SK-MEL-2 melanoma): 30 µM
TGI (SK-MEL-2 melanoma): > 100 µM
GI50 (SW-620 colon): 2.9 µM
TGI (SW-620 colon): 8.16 µM

C=CCN1CC2CON(C(=O)C(OC)(c3ccccc3)C(F)(F)F)C2C1C(C)C (stereo not given)
GI50 (COLO 205 colon): 26 µg/mL
GI50 (KM12 colon): 36.2 µg/mL
GI50 (LOX IMVI melanoma): 26.6 µg/mL
GI50 (MALME-3M melanoma): 20 µg/mL
TGI (MALME-3M melanoma): 54.5 µg/mL
GI50 (NCI/ADR-RES ovarian): 34.2 µg/mL
GI50 (RPMI-8226 leukemia): 9.82 µg/mL
TGI (RPMI-8226 leukemia): 41.7 µg/mL
GI50 (SF-268 CNS): 70.5 µg/mL
GI50 (SK-MEL-2 melanoma): 27.8 µg/mL
GI50 (SW-620 colon): 62.8 µg/mL

Clc1cc(Cl)cc(Nc2ccc3cc(OCCCN4CCOCC4)ccc3n2)c1
GI50 (COLO 205 colon): 1.78 µM
TGI (COLO 205 colon): 3.67 µM
GI50 (HT29 colon): 1.56 µM
TGI (HT29 colon): 3.74 µM
GI50 (KM12 colon): 2.23 µM
TGI (KM12 colon): 5.4 µM
GI50 (LOX IMVI melanoma): 1.62 µM
TGI (LOX IMVI melanoma): 3.05 µM
GI50 (NCI/ADR-RES ovarian): 2.96 µM
TGI (NCI/ADR-RES ovarian): > 100 µM
GI50 (RPMI-8226 leukemia): 2.2 µM
TGI (RPMI-8226 leukemia): 7.08 µM
GI50 (SF-268 CNS): 2.9 µM
TGI (SF-268 CNS): > 100 µM
GI50 (SK-MEL-2 melanoma): 2.7 µM
TGI (SK-MEL-2 melanoma): 6.97 µM

CCC(=O)Nc1ccc(N=NN(C)C)cc1
TGI (COLO 205 colon): > 100 µM
TGI (HT29 colon): > 100 µM
TGI (LOX IMVI melanoma): > 100 µM
TGI (MALME-3M melanoma): > 100 µM
TGI (NCI/ADR-RES ovarian): > 100 µM
TGI (SF-268 CNS): > 100 µM
TGI (SK-MEL-2 melanoma): > 100 µM
TGI (SW-620 colon): > 100 µM
